Reference: PubChem BioAssay AID1918942 (Molecular Pharmacology Branch, DTP, NCI, 2023)
pIC50: −log10 of the molar value.

System: 743489-274-T-PDC complex spheroid viability
Experiment: Anticancer human tumor 743489-274-T-PDC patient-derived renal cell carcinoma cell line growth inhibition
Details: for pIC50: curve of first compound; for viability, T/C: stronger effect = lower value
How it was run: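 Drug combinations with the LSD1 inhibitor iadademstat tested on tumor cells co-cultured as spheroids with endothelial cells and mesenchymal stem cells. Concentrations descended in half-log increments from clinical Cmax or 10 microM.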

[1] = second compound 0.1 µM, first compound 0.0316 µM
[2] = second compound 0.1 µM, first compound 0.1 µM
[3] = second compound 0.1 µM, first compound 0.316 µM
[4] = second compound 0.1 µM, first compound 1 µM
[5] = second compound 0.1 µM, first compound 3.16 µM
[6] = second compound 0.1 µM, first compound 10 µM
[7] = second compound 0.316 µM, first compound 0.0316 µM
[8] = second compound 0.316 µM, first compound 0.1 µM
[9] = second compound 0.316 µM, first compound 0.316 µM
[10] = second compound 0.316 µM, first compound 1 µM
[11] = second compound 0.316 µM, first compound 3.16 µM
[12] = second compound 0.316 µM, first compound 10 µM
[13] = second compound 1 µM, first compound 0.0316 µM
[14] = second compound 1 µM, first compound 0.1 µM
[15] = second compound 1 µM, first compound 0.316 µM
[16] = second compound 1 µM, first compound 1 µM
[17] = second compound 1 µM, first compound 3.16 µM
[18] = second compound 1 µM, first compound 10 µM
[19] = second compound 3.16 µM, first compound 0.0316 µM
[20] = second compound 3.16 µM, first compound 0.1 µM
[21] = second compound 3.16 µM, first compound 0.316 µM
[22] = second compound 3.16 µM, first compound 1 µM
[23] = second compound 3.16 µM, first compound 3.16 µM
[24] = second compound 3.16 µM, first compound 10 µM
[25] = second compound 10 µM, first compound 0.0316 µM
[26] = second compound 10 µM, first compound 0.1 µM
[27] = second compound 10 µM, first compound 0.316 µM
[28] = second compound 10 µM, first compound 1 µM
[29] = second compound 10 µM, first compound 3.16 µM
[30] = second compound 10 µM, first compound 10 µM
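Further: spheroids exposed to compounds for 7 days before readout.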
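Wherever viability, T/C is given: 100% = DMSO vehicle control wells.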

| SMILES | pIC50 (second compound 0.1 µM) | pIC50 (second compound 0.316 µM) | pIC50 (second compound 1 µM) | pIC50 (second compound 3.16 µM) | pIC50 (second compound 10 µM) | viability, T/C [1] [%] | viability, T/C [2] [%] | viability, T/C [3] [%] | viability, T/C [4] [%] | viability, T/C [7] [%] | viability, T/C [8] [%] | viability, T/C [9] [%] | viability, T/C [10] [%] | viability, T/C [13] [%] | viability, T/C [14] [%] | viability, T/C [15] [%] | viability, T/C [16] [%] | viability, T/C [19] [%] | viability, T/C [20] [%] | viability, T/C [21] [%] | other results |
| --- | --- | --- | --- | --- | --- | --- | --- | --- | --- | --- | --- | --- | --- | --- | --- | --- | --- | --- | --- | --- | --- |
| CC(C)c1c(-c2ccccc2)nc2c(C#N)c[nH]n2c1=O + NC1CC1c1ccc(-c2cccc(O)c2)cc1 | < 5.00 | < 5.00 | < 5.00 | < 5.00 | < 5.00 | 110 | 112 | 131 | 105 | 104 | 107 | 134 | 100 | 110 | 117 | 108 | 116 | 106 | 108 | 114 | viability, T/C [5]: 113%; viability, T/C [6]: 109%; viability, T/C [11]: 115%; viability, T/C [12]: 102%; viability, T/C [17]: 108%; viability, T/C [18]: 114%; viability, T/C [22]: 111%; viability, T/C [23]: 105%; viability, T/C [24]: 124%; viability, T/C [25]: 130%; viability, T/C [26]: 105%; viability, T/C [27]: 116%; viability, T/C [28]: 102%; viability, T/C [29]: 106%; viability, T/C [30]: 109% |
| COc1ccc([C@@H](O)c2cc(-c3ncnc4cc(N5CCOCC5)ccc34)c(F)cc2Cl)nn1 + NC1CC1c1ccc(-c2cccc(O)c2)cc1 | 6.19 | 6.01 | 6.08 | 6.21 | 6.04 | 101 | 93.6 | 63 | 38.6 | 99.7 | 92.7 | 68.8 | 57.4 | 94.3 | 93 | 80.2 | 43.4 | 93.6 | 94.4 | 59.4 | viability, T/C [5]: 31.9%; viability, T/C [6]: 15.4%; viability, T/C [11]: 24.1%; viability, T/C [12]: 32%; viability, T/C [17]: 25%; viability, T/C [18]: 16.8%; viability, T/C [22]: 41.2%; viability, T/C [23]: 27.5%; viability, T/C [24]: 17.4%; viability, T/C [25]: 99.1%; viability, T/C [26]: 111%; viability, T/C [27]: 74.3%; viability, T/C [28]: 49.5%; viability, T/C [29]: 27.1%; viability, T/C [30]: 16.6% |
| Nc1ncn(C2CC(O)C(CO)O2)c(=O)n1 (stereo not given) + NC1CCC(NC2CC2c2ccccc2)CC1 | < 6.00 | < 6.00 | < 6.00 | < 6.00 | < 6.00 | 110 | 109 | 105 | 105 | 107 | 107 | 98 | 98.4 | 114 | 92 | 105 | 105 | 108 | 95.9 | 94 | viability, T/C (second compound 0.1 µM, first compound 0.00316 µM): 107%; viability, T/C (second compound 0.1 µM, first compound 0.01 µM): 113%; viability, T/C (second compound 0.316 µM, first compound 0.00316 µM): 122%; viability, T/C (second compound 0.316 µM, first compound 0.01 µM): 119%; viability, T/C (second compound 1 µM, first compound 0.00316 µM): 107%; viability, T/C (second compound 1 µM, first compound 0.01 µM): 113%; viability, T/C (second compound 3.16 µM, first compound 0.00316 µM): 127%; viability, T/C (second compound 3.16 µM, first compound 0.01 µM): 122%; viability, T/C [22]: 97.8%; viability, T/C (second compound 10 µM, first compound 0.00316 µM): 104%; viability, T/C (second compound 10 µM, first compound 0.01 µM): 122%; viability, T/C [25]: 131%; viability, T/C [26]: 97.2%; viability, T/C [27]: 103%; viability, T/C [28]: 97.3% |
